Experiments:
ALS patients = test: Case studies, amyotrophic lateral sclerosis (ALS) patients; format: in vivo, human
Text: The results were documented by video.

[1] = system: Sandhoff disease patient fibroblasts; test: Glycosphingolipid (GSL) levels by HPLC, Sandhoff fibroblasts; format: cell-based, human; conditions: 1 mM for 6 days
[2] = system: Mucolipidosis Type II (MLII) patient fibroblasts; test: Lysosomal volume via LysoTracker, MLII fibroblasts; format: cell-based, human; conditions: 1 mM, 6 days
[3] = system: Hexb−/− mouse (Sandhoff disease model); test: Step cycle, Sandhoff mouse; format: in vivo; conditions: Sandhoff mice, 0.1 g/kg from 3 weeks of age, 12 weeks of age
Experimental: Step cycle is the length of time taken during locomotion by a limb from the time it leaves the ground until it leaves the ground on the next occasion. Step cycle time was assessed at 12 weeks of age in untreated and acetyl-leucine treated Sandhoff model mice. Acetyl-leucine treatment constituted 0.1 g/kg body weight acetyl-leucine from 3 weeks of age.

[4] = system: Lewy Body dementia patient; test: Case study, Lewy Body dementia; format: in vivo, human
Experimental: The patient started taking acetyl-leucine (3 g/day for one week; 5 g/day thereafter) and was evaluated after four weeks. […] Medication was reduced to 3 g/day, and the patient was instructed to stop medication about two weeks later.

[5] = system: Mucopolysaccharidosis Type VII (MPS VII) patient fibroblasts; test: Lysosomal volume via LysoTracker, MPS VII fibroblasts; format: cell-based, human; conditions: 1 mM, 6 days
[6] = system: Mucolipidosis Type IIIA (MLIIIA) patient fibroblasts; test: Lysosomal volume via LysoTracker, MLIIIA fibroblasts; format: cell-based, human; conditions: 1 mM, 6 days
[7] = system: patients with cerebellar ataxia; conditions: cited from earlier work
Npc1−/− mouse = test: Lifespan and symptom onset of Npc1−/− mouse; format: in vivo
Text: Separate groups of Npc1^−/− and Npc1^+/+ mice were left untreated, as controls.

[8] = ALS Patient 1, after a further 20 days
[9] = after 1 week on acetyl-DL-leucine
[10] = after 4 weeks on acetyl-DL-leucine

**Q.** What does the source list for `CC(=O)NC(CC(C)C)C(=O)O` (racemic) [acetyl-DL-leucine]?
**A.** Overall symptoms (ALS patients; ALS Patient 1): improvement in symptoms; Speech (patient report) (ALS patients; ALS Patient 1, 5 gram per day, after 15 days of treatment): significant improvement of speech; Speech after stopping treatment (ALS patients; ALS Patient 1, about 7 days plus 1-2 additional weeks off treatment): deterioration of speech; Paresis of the right foot-dorsiflexors and foot drop (ALS patients; [8]): improved dramatically and were clinically hardly detectable; Sleep (patient report) (ALS patients; [8]): improvement in sleep; Speech (patient report) (ALS patients; [8]): further improvement of speech; Symptomatology after resuming treatment (ALS patients; ALS Patient 1, second resumption): improved symptomatology, in particular speech; Clinical observation (ALS patients; ALS Patient 2, 5 g per day, after approximately 2 months): progredient deterioration of the motor function of the left hand, but a discrete improvement of walking; Swallowing functions (ALS patients; ALS Patient 2, after approximately 2 months): remained stable; Symptomatology (ALS patients; ALS Patient 3, 5 g per day, after one month): did not report improvement of symptomatology; Clinical observation (ALS patients; ALS Patient 4, 5 g per day, after about one month): subjective improvement of dysphagia and less hypersalivation; Symptomatology after suspension (ALS patients; ALS Patient 4, 10 days after therapy was suspended): worsening of symptomatology; ALS-FRS score (ALS patients; ALS Patient 4, about 8 weeks after resuming continuous treatment, before treatment 44/48): 43/48; GSL levels [1]: trend towards decreased GSL levels; LysoTracker fluorescence relative to untreated disease fibroblasts [2]: statistically significant reduction in LysoTracker fluorescence; Average step cycle time ([3]; p<0.001 vs untreated): significantly faster average step cycle times; Hind step cycle time ([3]; p<0.01 vs untreated): significantly faster hind step cycle times; Front step cycle time ([3]; p<0.05 vs untreated): significantly faster front step cycle times; Patient report ([4]; 5 g/day, after four weeks): increased fatigue and a deterioration of balance and speech; Coefficient of variation (temporal) [4, 9]: 9.1; Double stance [4, 9]: 36.1%; Max. speed [4, 9]: 92 cm/s; Step cycle length [4, 9]: 81 cm; Track width [4, 9]: 4.6 cm; cadence [4, 9]: 81 steps/minute; speed [4, 9]: 55 cm/s; Coefficient of variation (temporal) [4, 10]: 8.8; Double stance [4, 10]: 38.7%; Functional Gait Assessment [4, 10]: 11/30; Max. speed [4, 10]: 74 cm/s; Step cycle length [4, 10]: 79 cm; Track width [4, 10]: 6.7 cm; cadence [4, 10]: 85 steps/minute; speed [4, 10]: 56 cm/s; Patient report ([4]; decreased dose 3 g/day, re-evaluated about one month after ceasing): did not report improvement of symptomatology; LysoTracker fluorescence relative to untreated disease fibroblasts [5]: trend in reducing LysoTracker fluorescence; LysoTracker fluorescence relative to untreated disease fibroblasts [6]: trend in reducing LysoTracker fluorescence; PET study in patients with ataxia ([7]; Becker-Bense et al. (2015)): increased metabolism in the midbrain and lower brainstem in responders; Cerebellar ataxia, another case series ([7]; Pelz et al. (2015)): did not find benefit; Quantitative gait analysis ([7]; Schniepp et al. (2015)): improved temporal gait variability; Cerebellar ataxia, case series ([7]; Strupp et al. (2013)): symptomatic improvement of cerebellar ataxia; Delay of discernible indication of disease vs untreated Npc1−/− mice (Npc1−/− mouse; Npc1−/− mice treated from weaning): two; Lifespan (Npc1−/− mouse; Npc1−/− mouse, 0.1 g/kg from 3 weeks of age): statistically significant increase in lifespan

Source: patent US11793782B2, “Therapeutic agents for neurodegenerative diseases” (priority 2017, dated 2023)
